From patent publication US4309559A, “Sulphonamides useful as pesticides” (FBC Limited, priority 1977, dated 1982)

Assays:
Type in all cases: in vivo
[1] = system: Wheat (Triticum aestivum); experiment: Post-emergence foliar spray of monocotyledons, wheat; conditions: foliar spray 2.8 kg/ha, 14 days, 0=no effect, 100=complete kill
Protocol: (§1) Seeds of the monocotyledon species listed below were sown in anodised aluminium pans, 19 cm long×9.5 cm wide×5.0 cm deep, containing John Innes I potting compost. They were then watered and placed in a controlled environment room (22° C.; 65-85% relative humidity; 14 hours per day artificial illumination at 17,000 lux). 14 days after sowing, the seedlings were given a foliar spray of the compound of Example 44, formulated as an aqueous suspension together with 2000 ppm of the wetting agent Lissapol NX. The dosage rate was adjusted to be 2.8 kg active ingredient in 450 liters per hectare. After a further 14 days in the controlled environment room, the plants were visually assessed for any growth regulatory or herbicidal effect. All differences from an untreated control were scored on a scale from 0-100 where 0 signifies no effect and 100 signifies complete kill.
(§2) The compounds listed below were tested according to the procedure of Example 66 but including rice (Oryza sativa) as an additional test species.

Barley (Hordeum vulgare) = experiment: Post-emergence foliar spray of monocotyledons, barley; conditions: foliar spray 2.8 kg/ha, 14 days, 0=no effect, 100=complete kill
Protocol: as §1, §2

[2] = system: Barnyardgrass (Echinochloa crus-galli); experiment: Post-emergence foliar spray of monocotyledons, barnyardgrass; conditions: foliar spray 2.8 kg/ha, 14 days, 0=no effect, 100=complete kill
Protocol: as §1, §2

rice (Oryza sativa) = experiment: Post-emergence foliar spray of monocotyledons, rice; conditions: foliar spray 2.8 kg/ha, 14 days, 0=no effect, 100=complete kill
Protocol: as §1, §2

Cotton [3] = experiment: Soil incorporation (I), cotton; conditions: 21 days, 0=no effect, 100=complete suppression
From the text: (§3) Each of the compounds listed below was formulated as: […]
(§4) (I) an attaclay/sand dust and incorporated in John Innes I potting compost at a rate equivalent to 6.5 and 3.25 parts per million weight/volume of active ingredient to soil and placed in anodised aluminium pans, 19 cm long×9.5 cm wide×5.0 cm high. This is approximately equivalent to a surface application of 2.8 and 1.4 kg active ingredient per hectare cultivated to a depth of 5 cm. Seeds of the species listed below were sown in the treated soil, one species per pan, watered and placed in a controlled environment room (22° C.; 65-85% relative humidity and 14 hours artificial illumination at 17,000 lux) for 21 days.
(§5) The plants were then visually assessed for any growth regulatory or herbicidal effects. All differences from an untreated control were scored on a scale from 0-100, where 0 signifies no effect and 100 signifies complete suppression.
(§6) The results are shown in the following table where I stands for soil incorporation and II for surface spray.

Tomato [4] = experiment: Soil incorporation (I), tomato; conditions: 21 days, 0=no effect, 100=complete suppression
From the text: as §3, §4, §5, §6

Wheat [5] = experiment: Soil incorporation (I), wheat; conditions: 21 days, 0=no effect, 100=complete suppression
From the text: as §3, §4, §5, §6

Barley [6] = experiment: Soil incorporation (I), barley; conditions: 21 days, 0=no effect, 100=complete suppression
From the text: as §3, §4, §5, §6

Barnyard Grass [7] = experiment: Soil incorporation (I), barnyard grass; conditions: 21 days, 0=no effect, 100=complete suppression
From the text: as §3, §4, §5, §6

Rice [8] = experiment: Soil incorporation (I), rice; conditions: 21 days, 0=no effect, 100=complete suppression
From the text: as §3, §4, §5, §6

Carrot [9] = experiment: Soil incorporation (I), carrot; conditions: 21 days, 0=no effect, 100=complete suppression
From the text: as §3, §4, §5, §6

Cotton [10] = experiment: Surface spray (II), cotton; conditions: 21 days, 0=no effect, 100=complete suppression
From the text: as §3
(§7) (II) An aqueous suspension together with 1000 ppm of the wetting agent Lissapol NX. The surfaces of an additional set of pans with seeds already sown were then sprayed with 2.8 or 1.4 kg/ha in 450 liters/hectare, and the pans kept in the controlled environment room for 21 days.
as §5, §6

Tomato [11] = experiment: Surface spray (II), tomato; conditions: 21 days, 0=no effect, 100=complete suppression
From the text: as §3, §7, §5, §6

Wheat [12] = experiment: Surface spray (II), wheat; conditions: 21 days, 0=no effect, 100=complete suppression
From the text: as §3, §7, §5, §6

Barley [13] = experiment: Surface spray (II), barley; conditions: 21 days, 0=no effect, 100=complete suppression
From the text: as §3, §7, §5, §6

Barnyard Grass [14] = experiment: Surface spray (II), barnyard grass; conditions: 21 days, 0=no effect, 100=complete suppression
From the text: as §3, §7, §5, §6

Rice [15] = experiment: Surface spray (II), rice; conditions: 21 days, 0=no effect, 100=complete suppression
From the text: as §3, §7, §5, §6

Carrot [16] = experiment: Surface spray (II), carrot; conditions: 21 days, 0=no effect, 100=complete suppression
From the text: as §3, §7, §5, §6

Measured: growth regulatory or herbicidal effect score

CCS(=O)(=O)N(CC#N)c1ccc(Cl)c(Cl)c1 [Example 137]
100: Barnyard Grass [14]; row 6.5 ppm (2.8 kg/ha)
80: [2]
0: [1] | Barley (Hordeum vulgare) | rice (Oryza sativa) | Cotton [3]; I soil incorporation 3.25 ppm | Cotton [3]; I soil incorporation 6.5 ppm | Tomato [4]; I soil incorporation 3.25 ppm | Tomato [4]; I soil incorporation 6.5 ppm | Wheat [5]; I soil incorporation 3.25 ppm | Wheat [5]; I soil incorporation 6.5 ppm | Barley [6]; I soil incorporation 3.25 ppm | Barley [6]; I soil incorporation 6.5 ppm | Rice [8]; I soil incorporation 3.25 ppm | Rice [8]; I soil incorporation 6.5 ppm | Carrot [9]; I soil incorporation 3.25 ppm | Carrot [9]; I soil incorporation 6.5 ppm | Cotton [10]; row 3.25 ppm (1.4 kg/ha) | Cotton [10]; row 6.5 ppm (2.8 kg/ha) | Tomato [11]; row 3.25 ppm (1.4 kg/ha) | Tomato [11]; row 6.5 ppm (2.8 kg/ha) | Wheat [12]; row 3.25 ppm (1.4 kg/ha) | Wheat [12]; row 6.5 ppm (2.8 kg/ha) | Barley [13]; row 3.25 ppm (1.4 kg/ha) | Barley [13]; row 6.5 ppm (2.8 kg/ha) | Rice [15]; row 3.25 ppm (1.4 kg/ha) | Rice [15]; row 6.5 ppm (2.8 kg/ha) | Carrot [16]; row 3.25 ppm (1.4 kg/ha) | Carrot [16]; row 6.5 ppm (2.8 kg/ha)
90: Barnyard Grass [7]; I soil incorporation 3.25 ppm | Barnyard Grass [7]; I soil incorporation 6.5 ppm | Barnyard Grass [14]; row 3.25 ppm (1.4 kg/ha)
